# Target: T1, human H3R (Homo sapiens, UniProt Q9Y5N1)
# T1 construct: expressed in transfected cells; host or cells: CHO cells
# Test: Binding assay with 3H-(R)α-methylhistamine (competition binding, H3R-CHO membranes)
# Conditions: competition vs 3H(R)α-methylhistamine (1 nM), membranes of the human H3R-CHO cell line; Ki calculated from IC50 by Cheng-Prusoff
# Method: Binding Assay with ^3H—(R)α-methylhistamine
# Saturation binding experiments were performed using HR3-CHO membranes prepared as described in Takahashi, K, Tokita, S., Kotani, H. (2003) J. Pharmacol. Exp. Therapeutics 307, 213-218.
# An appropriate amount of membrane (60 to 80 μg protein/well) was incubated with increasing concentrations of ^3H(R)α-Methylhistamine di-hydrochloride (0.10 to 10 nM). Non specific binding was determined using a 200 fold excess of cold (R)α-Methylhistamine dihydrobromide (500 nM final concentration). The incubation was carried out at room temperature (in deep-well plates shaking for three hours). The final volume in each well was 250 μl. The incubation was followed by rapid filtration on GF/B filters (pre-soaked with 100 μl of 0.5% PEI in Tris 50 mM shaking at 200 rpm for two hours). The filtration was made using a cell-harvester and the filter plates were then washed five times with ice cold washing buffer containing 0.5 M NaCl. After harvesting, the plates were dried at 55° C. for 60 min, then we added scintillation fluid (Microscint 40, 40 microl in each well) and the amount of radioactivity on the filter was determined in Packard top-counter after shaking the plates for two hours at 200 rpm at room temperature. • Binding Buffer: 50 mM Tris-HCl pH 7.4 and 5 mM MgCl2×6H2O pH 7.4. Washing Buffer: 50 mM Tris-HCl pH 7.4 and 5 mM MgCl2×6H2O and 0.5 M NaCl pH 7.4.
# Indirect measurement of affinity of H3R inverse agonists: twelve increasing concentrations (ranging from 10 μM to 0.3 nM) of the selected compounds were always tested in competition binding experiments using membrane of the human H3R—CHO cell line. An appropriate amount of protein, e.g. approximately 500 cpm binding of RAMH at Kd, were incubated for 1 hour at room temperature in 250 μl final volume in 96-well plates in presence of ^3H(R)α-methylhistamine (1 nM final concentration=Kd). Non-specific binding was determined using a 200 fold excess of cold (R)α-methylhistamine dihydrobromide.
# All compounds were tested at a single concentration in duplicate. […] The concentration at which 50% inhibition of the radioligand ^3H(R)α-methylhistamine is obtained (the IC50) is determined from the linear regression of a plot of the logarithm of the concentration versus percent inhibition measured for the different concentrations. Ki's were calculated from IC50 based on Cheng-Prusoff equation (Cheng, Y. Prusoff, W H (1973) Biochem Pharmacol 22, 3099-3108): Ki=IC50/[1+D/Kd] wherein D is the concentration of the radioligand and Kd is the binding constant for the radioligand binding to the receptor under the conditions used in the competition experiment.
# T1 sequence (Q9Y5N1 whole entry): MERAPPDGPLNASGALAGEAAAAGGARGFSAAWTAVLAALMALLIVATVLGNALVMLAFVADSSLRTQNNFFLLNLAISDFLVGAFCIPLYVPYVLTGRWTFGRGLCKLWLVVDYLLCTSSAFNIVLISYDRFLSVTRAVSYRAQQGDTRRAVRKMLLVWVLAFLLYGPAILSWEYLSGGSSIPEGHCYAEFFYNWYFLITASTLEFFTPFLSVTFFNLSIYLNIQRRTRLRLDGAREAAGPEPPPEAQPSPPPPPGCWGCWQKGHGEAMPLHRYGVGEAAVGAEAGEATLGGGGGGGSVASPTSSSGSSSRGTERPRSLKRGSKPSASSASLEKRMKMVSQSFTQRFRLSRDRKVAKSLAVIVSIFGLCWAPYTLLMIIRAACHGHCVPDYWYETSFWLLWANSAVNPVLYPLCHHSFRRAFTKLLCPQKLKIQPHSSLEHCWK
row,Structure (SMILES),Ki [nM]
1,"CC(C)N1CCC(Oc2ccc3c(c2)cc(C(=O)N2CCN(S(C)(=O)=O)CC2)n3CC(F)F)CC1 [Example 55, [1-(2,2-Difluoro-ethyl)-5-(1-isopropyl-piperidin-4-yloxy)-1H-indol-2-yl]-(4-methanesulfonyl-piperazin-1-yl)-methanone]",6.7
2,"Cc1ccc(S(=O)(=O)N2CCN(C(=O)c3cc4cc(O[C@H]5C[C@H]6CC[C@@H](C5)N6C(C)C)ccc4n3C(C)C)CC2)cc1 [Example 44, [1-Isopropyl-5-((1S,3r,5R)-8-isopropyl-8-aza-bicyclo[3.2.1]oct-3-yloxy)-1H-indol-2-yl]-[4-(toluene-4-sulfonyl)-piperazin-1-yl]-methanone]",2.4
3,"COC(=O)N1CCN(C(=O)c2cc3cc(OC4CCN(C(C)C)CC4)ccc3n2C(C)C)CC1 [Example 73, 4-[1-Isopropyl-5-(1-isopropyl-piperidin-4-yloxy)-1H-indole-2-carbonyl]-piperazine-1-carboxylic acid methyl ester]",10.4

# More lines, now with the values ahead:
row,Ki [nM],Structure (SMILES)
1,4.3,"CC(C)N1CCC(Oc2cc3cc(C(=O)N4CCN(S(=O)(=O)N(C)C)CC4)[nH]c3cc2Br)CC1 [Example 3, 4-[6-Bromo-5-(1-isopropyl-piperidin-4-yloxy)-1H-indole-2-carbonyl]-piperazine-1-sulfonic acid dimethylamide]"
2,1.8,"CC(=O)N1CCN(C(=O)c2cc3cc(OC4CCN(C(C)C)CC4)c(Br)cc3n2-c2ccnc(Cl)c2)CC1 [Example 28, 1-{4-[6-Bromo-1-(2-chloro-pyridin-4-yl)-5-(1-isopropyl-piperidin-4-yloxy)-1H-indole-2-carbonyl]-piperazin-1-yl}-ethanone]"
3,2.3,"CC(C)N1CCC(Oc2cc3cc(C(=O)N4CCN(C(=O)C5CC5)CC4)[nH]c3cc2Br)CC1 [Example 18, [6-Bromo-5-(1-isopropyl-piperidin-4-yloxy)-1H-indol-2-yl]-(4-cyclopropanecarbonyl-piperazin-1-yl)-methanone]"
4,3.4,"CC(C)N1CCC(Oc2cc3cc(C(=O)N4CCN(S(C)(=O)=O)CC4)n(C(C)C)c3cc2Br)CC1 [Example 5, [6-Bromo-1-isopropyl-5-(1-isopropyl-piperidin-4-yloxy)-1H-indol-2-yl]-(4-methanesulfonyl-piperazin-1-yl)-methanone]"

# From patent publication US7507736B2, “Indol-2-yl-piperazin-1-yl-methanone derivatives” (Hoffmann-La Roche Inc., priority 2007, dated 2009)
